In EPA's aquatic toxicity sets:

The molecules below were run on Tetrahymena pyriformis (assay: 48 h IGC50 (-log10 mol/L); higher = more toxic).
With `CCOC(=O)C(C)C` the “48 h IGC50 (-log10 mol/L)” value was 1.73.
`O=[N+]([O-])c1cccc(F)c1` was tested, and the “48 h IGC50 (-log10 mol/L)” value was 3.2.
`O=[N+]([O-])c1cc(C(F)(F)F)ccc1Cl` was tested, and the “48 h IGC50 (-log10 mol/L)” value was 3.85.
`CCCCC(Br)C(=O)O` (centres undefined) was tested, and the “48 h IGC50 (-log10 mol/L)” value was 3.46.
`CC(=O)C(Cl)Cl` was tested, and the “48 h IGC50 (-log10 mol/L)” value was 3.64.
In the case of `CCC(=O)c1ccco1`, the “48 h IGC50 (-log10 mol/L)” value is reported as 2.23.
In the case of `CCOC(=O)c1ccc(OC)cc1`, the “48 h IGC50 (-log10 mol/L)” value is reported as 3.77.
For `CC(C)CCN`, the “48 h IGC50 (-log10 mol/L)” value was 2.42.
`CCC(C)C(N)CO` (centres undefined) was tested, and the “48 h IGC50 (-log10 mol/L)” value was 2.34.
With `CCCOC(=O)c1ccccc1C(=O)OCCC` the “48 h IGC50 (-log10 mol/L)” value was 3.98.
In the case of `Oc1ccc(-c2ccc(Br)cc2)cc1`, the “48 h IGC50 (-log10 mol/L)” value is reported as 5.31.
`OCc1cccc(O)c1` was tested, and the “48 h IGC50 (-log10 mol/L)” value was 1.98.
`CCCC#CC(=O)OCC` was tested, and the “48 h IGC50 (-log10 mol/L)” value was 3.7.
For `N#Cc1ccccc1N`, the “48 h IGC50 (-log10 mol/L)” value was 2.5.
With `CC/C=C/CC(=O)O` the “48 h IGC50 (-log10 mol/L)” value was 2.78.
`CCCCC(O)CO` (centres undefined) was tested, and the “48 h IGC50 (-log10 mol/L)” value was 1.73.
For `CCCCCC#CCCO`, the “48 h IGC50 (-log10 mol/L)” value was 3.34.
`Cc1cc(O)c(Cl)cc1C` was tested, and the “48 h IGC50 (-log10 mol/L)” value was 3.69.
In the case of `N#CC(Cl)(Cl)Cl`, the “48 h IGC50 (-log10 mol/L)” value is reported as 4.88.
In the case of `Cc1cc(C)cc(N)c1`, the “48 h IGC50 (-log10 mol/L)” value is reported as 2.64.
In the case of `O=Cc1cc(Br)c(O)c(Br)c1`, the “48 h IGC50 (-log10 mol/L)” value is reported as 3.89.
For `O=C(NO)c1ccccc1`, the “48 h IGC50 (-log10 mol/L)” value was 3.38.
For `CCCCCN=C=S`, the “48 h IGC50 (-log10 mol/L)” value was 4.71.
With `O=Cc1ccoc1` the “48 h IGC50 (-log10 mol/L)” value was 3.
`CCCCCCCC(=O)c1ccccc1` was tested, and the “48 h IGC50 (-log10 mol/L)” value was 4.89.
For `CC(O)Cc1ccccc1` (centres undefined), the “48 h IGC50 (-log10 mol/L)” value was 2.38.
With `CCCCCc1cccs1` the “48 h IGC50 (-log10 mol/L)” value was 4.2.
With `O=C(CBr)c1ccccc1` the “48 h IGC50 (-log10 mol/L)” value was 5.82.
With `CC=CCO` the “48 h IGC50 (-log10 mol/L)” value was 1.53.
`O=[N+]([O-])c1cc(F)ccc1F` was tested, and the “48 h IGC50 (-log10 mol/L)” value was 3.33.
For `CC(O)(Cc1ccccc1)c1ccccc1` (centres undefined), the “48 h IGC50 (-log10 mol/L)” value was 3.8.
For `Cc1cc(O)c(C(C)C)cc1Cl`, the “48 h IGC50 (-log10 mol/L)” value was 4.85.
With `COC(=O)c1ccccc1` the “48 h IGC50 (-log10 mol/L)” value was 3.23.
`Cc1cnc2ccccc2n1` was tested, and the “48 h IGC50 (-log10 mol/L)” value was 3.02.
`CC(=O)NN` was tested, and the “48 h IGC50 (-log10 mol/L)” value was 1.62.
`O=[N+]([O-])c1ccccc1CO` was tested, and the “48 h IGC50 (-log10 mol/L)” value was 2.85.
`CC(=O)CCC(C)=O` was tested, and the “48 h IGC50 (-log10 mol/L)” value was 1.6.
With `CC(C)c1cccc(O)c1` the “48 h IGC50 (-log10 mol/L)” value was 3.61.
With `Nc1ncc([N+](=O)[O-])cn1` the “48 h IGC50 (-log10 mol/L)” value was 2.57.
With `Clc1sccc1Br` the “48 h IGC50 (-log10 mol/L)” value was 3.73.
For `C=C(C)C#N`, the “48 h IGC50 (-log10 mol/L)” value was 1.35.
With `CCOC(=O)C=C(C)C` the “48 h IGC50 (-log10 mol/L)” value was 2.52.
With `Cc1ccc(C)c(O)c1` the “48 h IGC50 (-log10 mol/L)” value was 3.14.
For `CCCCCC#N`, the “48 h IGC50 (-log10 mol/L)” value was 2.62.
`C#CCCCO` was tested, and the “48 h IGC50 (-log10 mol/L)” value was 1.58.
`c1ccc2ccccc2c1` was tested, and the “48 h IGC50 (-log10 mol/L)” value was 2.88.
With `Nc1cccc(I)c1` the “48 h IGC50 (-log10 mol/L)” value was 3.65.
For `C=CCOC(=O)CC`, the “48 h IGC50 (-log10 mol/L)” value was 2.12.
`CN(C)c1ccc(C=O)cc1` was tested, and the “48 h IGC50 (-log10 mol/L)” value was 3.23.
For `Cc1cc(Br)cc(C)c1O`, the “48 h IGC50 (-log10 mol/L)” value was 4.16.
In the case of `CCCCCCC#CCCO`, the “48 h IGC50 (-log10 mol/L)” value is reported as 4.13.
With `CC=CC(=O)OCC(C)C` the “48 h IGC50 (-log10 mol/L)” value was 2.66.
For `C#CC(C)=O`, the “48 h IGC50 (-log10 mol/L)” value was 4.96.
With `CCCCCCC#CC(=O)O` the “48 h IGC50 (-log10 mol/L)” value was 3.71.
With `Oc1cccc(Cl)c1Cl` the “48 h IGC50 (-log10 mol/L)” value was 4.28.
With `CCCCC(=O)OCCC` the “48 h IGC50 (-log10 mol/L)” value was 3.01.
With `CC(C)(C)c1ccc(Br)cc1` the “48 h IGC50 (-log10 mol/L)” value was 3.75.
In the case of `OCc1ccccc1O`, the “48 h IGC50 (-log10 mol/L)” value is reported as 2.05.
`CCCCOC(=O)c1ccc(O)cc1` was tested, and the “48 h IGC50 (-log10 mol/L)” value was 4.33.
With `Nc1c(Br)cc(Cl)cc1Br` the “48 h IGC50 (-log10 mol/L)” value was 4.52.
In the case of `C/C=C/COC(C)=O`, the “48 h IGC50 (-log10 mol/L)” value is reported as 2.13.
In the case of `CCSCC`, the “48 h IGC50 (-log10 mol/L)” value is reported as 2.02.
With `OCC(Br)(Br)Br` the “48 h IGC50 (-log10 mol/L)” value was 3.11.
In the case of `Cc1cccc(N)c1`, the “48 h IGC50 (-log10 mol/L)” value is reported as 2.72.
For `C=CCI`, the “48 h IGC50 (-log10 mol/L)” value was 3.8.
In the case of `NCCCCc1ccccc1`, the “48 h IGC50 (-log10 mol/L)” value is reported as 3.62.
In the case of `OC1Cc2ccccc2C1`, the “48 h IGC50 (-log10 mol/L)” value is reported as 2.31.
`CCC(N)=O` was tested, and the “48 h IGC50 (-log10 mol/L)” value was 0.91.
In the case of `OCc1ccccc1I`, the “48 h IGC50 (-log10 mol/L)” value is reported as 3.33.
